This experiment in a line: Inhibition of wild type HIV YU2 gp120 to CD4 binding. On the set-up: species or system Human immunodeficiency virus.

The values that follow come from ChEMBL document CHEMBL1148797, “Structure-activity relationships in the binding of chemically derivatized CD4 to gp120 from human immunodeficiency virus” (J Med Chem, 2007).

Broadly, the IC50 is the concentration at which inhibition is half-maximal.

For the compound `O=C(O)c1cc(SSc2ccc([N+](=O)[O-])c(C(=O)O)c2)ccc1[N+](=O)[O-]`, the half-maximal inhibitory concentration (IC50) came to 3.58 µM. This lies in the single-digit micromolar range.

`CCN1C(=O)C=CC1=O` [N-ETHYLMALEIMIDE] yielded an IC50 of 3.22 µM.
